Earlier results as cited in US11058666B2, “Oral administration of melanin for protection against radiation” (priority 2011, dated 2021).

Settings: after 9 Gy delivered at 1 Gy/min, published data

## NCCCNCCSP(=O)(O)O [amifostine]
  survival: 60%
